# According to PMC10630452, “The tumor-enriched small molecule gambogic amide suppresses glioma by targeting WDR1-dependent cytoskeleton remodeling” (Signal Transduction and Targeted Therapy, 2023):
# Assays:
# subcutaneous glioma PDX = assay: Subcutaneous PDX model of glioma (GBM1); type: in vivo, nude mice
# Description: (§1) Fig. 2 The BBB permeability and tumor suppressor ability of GA-amide compared with TMZ. GA-amide (a) or TMZ (b) concentration in the tumor area and normal brain tissue following a single injection of GA-amide (10 mg/kg, i.v.) or TMZ (10 mg/kg, i.v.). The data are presented as the means ± SEMs (n = 3). c Western blot analysis of the expression of TrkA in mouse tumor tissues (T) and normal brain tissues (N), n = 4. d Western blot analysis of glycosylated TrkA expression in human normal brain tissues (N) and glioma tissues of different grades. e Time curve of GA-amide and TMZ treatment in a cell viability assay (MTS) in T2-4, GSC2 and T12-1 cells. f–h A PDX mouse model was established, and the mice were treated with vehicle (control, n = 9), 2 mg/kg GA-amide (n = 9), 2 mg/kg GAC (n = 9) or […] TMZ (n = 8) by i.p. injection daily for 10 days. A summary photograph is presented in (f), statistical results in (g) and the body weights of mice in (h); the mean ± SEMs are shown. n.s: P ≥ 0.05, *P < 0.05, **P < 0.01 and ***P < 0.001 compared with the control group by one-way ANOVA at each time point
# Male nude mice aged 5–6 weeks were selected for establishment of the in vivo glioma mouse models. For the PDX models, the tumor sample will be soaked in HBSS solution on ice and transferred from the hospital to the laboratory. Patient-related information was shown in Supplementary Table 4). For the subcutaneous PDX models, the isometric fresh GBM tumor (GBM1) specimens were implanted s.c. into the flank of a nude mouse. Then, the mice were treated with GA-amide (2 mg/kg i.p.), gambogic acid (2 mg/kg i.p.), TMZ (65 mg/kg i.p., Selleck) or vehicle after the tumors grew to 100 mm^3. The mouse body weights were measured, and tumor volumes were calculated using the formula L × W^2/2. After treatment, the xenografts were harvested and photographed.
# [1] = target: T1, His-WD2-7 (WD2 to WD7 repeats of WDR1) (Homo sapiens, UniProt O75083); assay: SPR analysis (Biacore 8 K); type: binding; settings: immobilized His-WD2-7, 25 °C, 5% DMSO
# T1 construct: His; made in house; host or cells: Arctic-Express (E. coli)
# T1 sequence (O75083 48-306 limits assumed): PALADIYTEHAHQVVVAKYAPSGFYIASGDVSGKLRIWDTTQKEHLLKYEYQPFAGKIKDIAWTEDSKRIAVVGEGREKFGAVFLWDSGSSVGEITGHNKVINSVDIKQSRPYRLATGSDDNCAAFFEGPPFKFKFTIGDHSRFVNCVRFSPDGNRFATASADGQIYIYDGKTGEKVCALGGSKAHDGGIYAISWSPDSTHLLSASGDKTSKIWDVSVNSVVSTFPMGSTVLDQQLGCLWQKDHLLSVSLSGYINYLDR
# Description: The binding affinities of GA-amide for its target proteins GST-WDR1, GST, and His-WD2-7 were assayed by using the SPR-based Biacore 8 K instrument (GE Healthcare). The CM5 sensor chip was used to immobilize 15,000 RU of the target protein to the sensor surface by the standard amine coupling reaction at 25 °C in PBS running buffer. Gradient concentrations of GA-amide containing 5% DMSO were injected into the channels to evaluate the binding affinity. The dissociation constants (KD values) of the GA-amide–protein complexes were calculated with Biacore 8 K Evaluation Software.
# The pGEX4T-1 plasmid was used to express the GST-WDR1 and GST proteins, while the pET-28c plasmid was used to express the His-WD2-7 protein. Arctic-ExpressTM was used for the production of the GST-WDR1, GST and His-WD2-7 fusion proteins. The cultures were grown at 37 °C, and when the OD600 reached 0.5–0.8, the protein was expressed after 0.5 mM IPTG was added. After 4 h, the cells were collected and washed with cold PBS twice.
# For His-WD2-7 protein purification, cells were first lysed by sonication. WD2-7 was present the precipitate and solubilized as described above. Then, the protein was loaded onto a Balanced Ni-IDA-Sepharose Cl-6B column (Novagen) and washed with Ni-IDA Washing-Buffer (20 mM Tris-HCl, 20 mM imidazole, 0.15 M NaCl, pH 8.0). […]
# infarct = settings: subcutaneous injection of 2 mg/kg; cited from earlier work
# [2] = BBB permeability assay in U87MG-SLC intracranial xenograft mice; type: in vivo, mouse; settings: nude, mouse, in vivo, iv, 10 mg/kg
# Description: as §1
# Mice bearing U87MG-SLC cell intracranial xenografts were injected with GA-amide (i.v.), and tissues from the brain tumor area and normal brain tissues were collected at different times after injection. […] The diagnostic product ions for GA-amide were detected at m/z 628.3/572.2.
# hippocampal neurons = settings: cited from earlier work
# F-actin = F-actin staining and G-actin/F-actin assay in T2-4 cells; type: cell-based; settings: 0.3 μM, 4 h, 8 h and 12 h
# Description: F-actin isolation was performed according to the instructions of the G-actin/F-actin assay (Cytoskeleton, Inc.). Briefly, cells were lysed in LAS2 buffer (Cytoskeleton, Inc.). The lysates were centrifuged (5 min at 1000 rpm) to pellet undisrupted cells, and then 100 µl of the supernatant was ultracentrifuged at 37 °C (100,000 × g) for 1 h to separate F-actin from soluble G-actin. The F-actin pellet was solubilized by incubation in 100 μL of F-actin depolymerization buffer for 1 h. The soluble F-actin and G-actin fractions were subsequently analyzed by immunoblotting with a mouse monoclonal anti-actin antibody (Cytoskeleton, Inc.).
# Representative images of three wells are shown, and the scale bar represents 500 μm. h The apoptosis assay was conducted on T2-4 cells treated with DMSO, GA-amide (0.3 μM), jas (50 nM), and jas (50 nM jas was pretreated for 12 hours) in combination with GA-amide (0.3 μM) for 4 hours. The data were presented as the mean ± SEM (n = 3) and analyzed using one-way ANOVA analysis. Statistical significance is denoted as *P <0.05, **P <0.01, and ***P <0.001.
# [3] = system: TMZ-resistant cells (T2-4, GSC2 and T12-1); assay: Time curve cell viability assay (MTS); type: cell-based; settings: PDCs and GSCs
# Description: as §1
# PDCs = assay: Tumor sphere formation assay; type: cell-based, human
# Description: For the tumor sphere formation assay, cells were inoculated in 96-well plates at 600 cells/well in a volume of 100 μL. The tumor spheres with a diameter of 50–100 μm and a diameter of over 100 μm were counted separately under a microscope after 14 days. For the limiting dilution assay, cells were dissociated to generate a single-cell suspension, which was diluted along a gradient for seeding in a 96-well plate at concentrations ranging from 400 cells to 25 cells in a volume of 100 μL per well.
smiles,measurement,setting,value
"CC(C)=CCC[C@]1(C)C=Cc2c(O)c3c(c(CC=C(C)C)c2O1)O[C@]12C(=C[C@@H]4CC1C(C)(C)O[C@@]2(C/C=C(/C)C(N)=O)C4=O)C3=O [GA-amide, gambogic amide]",body weight of mice,subcutaneous glioma PDX; 2 mg/kg i.p. daily for 10 days,did not cause the loss of body weight
same,tumor volume versus control,subcutaneous glioma PDX; 2 mg/kg i.p. daily for 10 days,significantly decreased compared with those in the control group
same,"Ki67, CD133 and cleaved caspase3 in tumor sections (immunohistology)","subcutaneous glioma PDX; PDX tumors at endpoint, 10 days treatment",decreased expression of Ki67 and the GSC marker prominin 1 (CD133) as well as an increased level of cleaved caspase3
same,"histology of liver, kidney and small intestine (H&E)",subcutaneous glioma PDX; after GA-amide treatment,no discernible abnormalities
same,Kd,[1],46.7 µM
same,infarct volume,infarct,significantly reduce the infarct volume
same,Tmax,[2],2 min
same,toxicity in vitro,hippocampal neurons; 0.5 μM,did not display any toxicity in vitro
same,concentrations with protective effect on hippocampal neurons against glutamate-triggered apoptosis,hippocampal neurons; also induced neurite outgrowth in PC12 cells,10 to 50 nM
same,F-actin content,F-actin,decreased content of F-actin at the cell edge
same,viability of TMZ-resistant cells over time,[3],effectively reduced the viability of TMZ-resistant cells
same,tertiary tumor sphere formation,"PDCs; T2-4 and T12-2, cells from secondary spheres pretreated 4 h",still suppressed
same,secondary tumor sphere formation potential,"PDCs; pretreatment 4 h with 0.3 μM, 1 μM and 3 μM",completely abolished
